Reference: publication PMC12811252 (The EMBO Journal, 2025)
Where two headings read alike, the source gives them in different places.

How the values were obtained:
OT-I TCR [1] = assay: SPR steady-state binding of soluble OT-I TCR to immobilised pMHC (H-2Kb) at 37 °C: apparent and active KD; parameters: species or system mouse
OT-I TCR [2] = details: ref Alam 99, cited from earlier work
[3] = tested on: OT-I T cells from transgenic mice; parameters: method as in Hogquist 1995; details: relative to OVA (N4) = 1; ref Hogquist 1995; cited from earlier work
[4] = tested on: pre-selection OT-I double-positive thymocytes; parameters: method as in Daniels 2006; details: relative to OVA (N4) = 1; ref Daniels 2006; cited from earlier work
OT-I TCR [5] = details: 25 °C; ref Alam 95; read-out: Original KD, Alam 95 25ºC; cited from earlier work
From the text: Supplement 44318_2025_644_MOESM5_ESM.zip/KDs - Original vs Revised column.xlsx, sheet "KDs - Original vs Revised colum" | column: Original KD from indicated studies in columns

OT-I TCR [6] = details: file OT1 Discrimination Published Original KD; repeated per study block; ref Alam 99, Rosette; cited from earlier work
From the text: Supplement 44318_2025_644_MOESM7_ESM.zip/OT1 Discrimination Published Original KD.csv, table

[7] = tested on: naive CD8+ T cells from OT-I transgenic mice; details: 2D affinity AcKa; ref Huang 2010; cited from earlier work
From the text: This striking observation spur ...

naive OT-I splenocytes = details: relative to OVA (N4) = 1; ref Huang 2010; cited from earlier work
[8] = molecular target: VSV pMHC: […] on H-2K^b with human beta-2 microglobulin (mouse | human | not stated); assay: SPR
OT-I TCR [9] = assay: SPR binding of OT-I TCR to inactive (denatured or unfolded) pMHC, Bmax constrained to pMHC immobilisation level; parameters: species or system mouse; details: unit not printed in the file (text: µM), read-out: KD for inactive pMHC, single experiment
Target sequence in this assay (as listed by the source): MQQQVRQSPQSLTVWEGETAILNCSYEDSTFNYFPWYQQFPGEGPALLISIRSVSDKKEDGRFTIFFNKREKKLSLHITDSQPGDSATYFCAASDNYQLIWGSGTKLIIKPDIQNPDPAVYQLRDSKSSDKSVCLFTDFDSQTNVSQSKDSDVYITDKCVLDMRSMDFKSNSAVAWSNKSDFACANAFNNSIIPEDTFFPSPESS
Target sequence in this assay (as listed by the source): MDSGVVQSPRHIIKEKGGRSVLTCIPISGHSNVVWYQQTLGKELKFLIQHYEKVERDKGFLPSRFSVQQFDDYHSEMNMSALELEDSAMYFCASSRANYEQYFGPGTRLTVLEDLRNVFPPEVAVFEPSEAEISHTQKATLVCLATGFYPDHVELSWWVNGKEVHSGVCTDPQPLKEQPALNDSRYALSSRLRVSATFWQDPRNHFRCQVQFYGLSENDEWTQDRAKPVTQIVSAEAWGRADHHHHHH

OT-I TCR [10] = molecular target: OT-I TCR; parameters: method as in Stepanek et al, 2014; details: SPR equilibrium binding analysis, 25 °C, mean of two independent replicates; ref Stepanek et al, 2014; cited from earlier work
[11] = tested on: naive or anergic mouse OT-I CD8+ T cells; parameters: method as in 2 sources, ref Lo et al, 2023 ||| ref Lo 2023; details: relative to OVA (N4) = 1; values with * excluded; ref Lo 2023; cited from earlier work
[12] = tested on: CD8+ Jurkat cells expressing the OT-I TCR; parameters: method as in Lo 2019; details: relative to OVA (N4) = 1; ref Lo 2019; cited from earlier work
OT-I T cells = tested on: OT-I T cells; parameters: method as in Zehn 2009; details: relative to OVA (N4) = 1; ref Zehn 2009; cited from earlier work
[13] = replicate 1 (1st value of the list in KD_active_calculated.csv), 37 °C, unit not given in the file (Table 1: µM), read-out: KD active, single SPR experiment
[14] = replicate 2 (2nd value of the list), 37 °C, unit inferred, read-out: KD active, single SPR experiment
[15] = replicate 3 (3rd value of the list), 37 °C, unit inferred, read-out: KD active, single SPR experiment
[16] = 25 °C, read-out: Original KD, Alam 99 (25ºC)
[17] = replicate 4 (4th value of the list), 37 °C, unit inferred, read-out: KD active, single SPR experiment
[18] = replicate 5 (5th value of the list), 37 °C, unit inferred, read-out: KD active, single SPR experiment
[19] = replicate 6 (6th value of the list), 37 °C, unit inferred, read-out: KD active, single SPR experiment
[20] = 37 °C, * excluded values, because kinetics showed biphasic behaviour, read-out: Original KD, Alam 99 (37ºC)
[21] = SPR, single repeats, read-out: KDs active

Substance	Kd (OT-I TCR [1]; [13])	Kd (OT-I TCR [1]; [14])	Kd (OT-I TCR [1]; [15])	Kd (OT-I TCR [1]; [17])	Kd (OT-I TCR [1]; [18])	Kd (OT-I TCR [1]; [19])	also measured
ATLVFHNL [Stat3]	2270 µM	4730 µM	3740 µM	–	–	–	–
ISFKFDHL [Cappa1]	2470 µM	6920 µM	9740 µM	3280 µM	2800 µM	2530 µM	–
OT-I TCR (soluble; murine variable domains, human constant domains, artificial interchain disulphide)	–	–	–	–	–	–	Kd [8]: 1.58 mM
RGYNYEKL [V-OVA, its pMHC is not correctly folded]	–	–	–	–	–	–	Kd (OT-I TCR [2]; [16]): 0.0182 mM; Kd (OT-I TCR [2]; [20]): 0.0127 mM; Kd (OT-I TCR [9]; replicate 1 (first line of Denatured KD.csv)): 1560 µM; Kd (OT-I TCR [9]; replicate 2 (second line of Denatured KD.csv)): 2630 µM; Kd (OT-I TCR [5]): 0.0298 mM; Kd (OT-I TCR [6]): 0.019 mM; 2D Huang 37¼C (AcKa) [7]: 0.0000029; Potency, Huang 2010 (naive OT-I splenocytes): 417000
RTYTYEKL [Catnb]	2040 µM	1880 µM	1900 µM	2040 µM	1950 µM	2380 µM	Kd (OT-I TCR [1]; [21]): 2040 µM
SIAAFASL [Null]	4610 µM	3520 µM	2350 µM	–	–	–	–
SIIQFERL [Peptide Q4R7]	184 µM	273 µM	317 µM	–	–	–	Potency, Daniels 2006 [4]: 81; Potency, Lo 2023 [11]: 14.78; Potency, Lo 2019 [12]: 3.464; Kd (OT-I TCR [10]): 0.288 mM
VGPRYTNL [Mapk1]	–	4240 µM	1810 µM	2010 µM	–	–	–

Continued, in another order:

Kd (OT-I TCR [1]; [13])	Kd (OT-I TCR [1]; [14])	Kd (OT-I TCR [1]; [15])	Kd (OT-I TCR [1]; [17])	Kd (OT-I TCR [1]; [18])	Kd (OT-I TCR [1]; [19])	Substance	also measured
–	2800 µM	12400 µM	3870 µM	3520 µM	2180 µM	EIINFEKL [Peptide E1]	Kd (OT-I TCR [2]; [16]): 0.0203 mM; Potency, Hogquist 1995 [3]: 5010000; Potency, Daniels 2006 [4]: 56524; Kd (OT-I TCR [5]): 0.0226 mM; Kd (OT-I TCR [6]): 0.0203 mM; 2D Huang 37¼C (AcKa) [7]: 0.0000054; Kd (OT-I TCR [1]; replicate 7 (7th value of the list), 37 °C, unit inferred, read-out: KD active, single SPR experiment): 2320 µM; Kd (OT-I TCR [1]; replicate 8 (8th value of the list), 37 °C, unit inferred, read-out: KD active, single SPR experiment): 3030 µM; Kd (OT-I TCR [1]; replicate 9 (9th value of the list), 37 °C, unit inferred, read-out: KD active, single SPR experiment): 7240 µM; Kd (OT-I TCR [1]; replicate 10 (10th value of the list), 37 °C, unit inferred, read-out: KD active, single SPR experiment): 2140 µM; Potency, Huang 2010 (naive OT-I splenocytes): 167000
3370 µM	4000 µM	2730 µM	–	–	–	SIIEFEKL [Peptide E4]	Kd (OT-I TCR [10]): > 1 mM
2710 µM	3290 µM	2190 µM	–	–	–	SIIKFEKL [Peptide K4]	–
7640 µM	3760 µM	4270 µM	5030 µM	6430 µM	4280 µM	SIIRFEKL [Peptide R4]	Kd (OT-I TCR [2]; [16]): 0.0401 mM; Kd (OT-I TCR [2]; [20]): 0.0269 mM; Kd (OT-I TCR [5]): 0.0571 mM; Kd (OT-I TCR [6]): 0.0401 mM; 2D Huang 37¼C (AcKa) [7]: 0.0000017; Kd (OT-I TCR [1]; [21]): 4270 µM; Kd (OT-I TCR [1]; repeat 3, read-out: Revised KDs (This Study)): 4270 µM; Kd (OT-I TCR [1]; repeat 6, read-out: Revised KDs (This Study)): 4270 µM; Potency, Huang 2010 (naive OT-I splenocytes): 167000
907 µM	791 µM	628 µM	879 µM	–	–	SIIVFEKL [Peptide V4]	Potency, Lo 2023 [11]: 2016; Kd (OT-I TCR [10]): > 1 mM; Potency, Zehn 2009 (OT-I T cells): 680
